Test results published in PMC11818871, “Identification of Fungal Metabolite Gliotoxin as a Potent Inhibitor Against Bacterial O-Acetylserine Sulfhydrylase CysK and CysM” (International Journal of Molecular Sciences, 2025).

Tests used:
[1] = target: CysM (O-acetylserine sulfhydrylase) (Salmonella enterica, UniProt P29848); test: recombinant enzyme, H2S consumption by HSip-1 fluorescence; confirmed by LC-MS/MS of cysteine production; format: biochemical
[2] = target: CysK (O-acetylserine sulfhydrylase) (Salmonella enterica, UniProt P0A1E3); test: as above; format: biochemical
CysK (O-acetylserine sulfhydrylase), sequence (P0A1E3 2-323): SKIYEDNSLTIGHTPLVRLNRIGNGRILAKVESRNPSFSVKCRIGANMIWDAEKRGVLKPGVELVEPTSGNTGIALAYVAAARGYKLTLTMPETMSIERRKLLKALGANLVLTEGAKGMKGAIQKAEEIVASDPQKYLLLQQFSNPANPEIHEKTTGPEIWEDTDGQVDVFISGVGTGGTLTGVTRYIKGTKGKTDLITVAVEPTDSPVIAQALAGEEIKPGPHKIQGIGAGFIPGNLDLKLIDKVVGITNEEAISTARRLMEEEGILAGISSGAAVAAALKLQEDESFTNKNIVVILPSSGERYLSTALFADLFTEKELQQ

CysM (O-acetylserine sulfhydrylase), sequence (P29848 whole entry): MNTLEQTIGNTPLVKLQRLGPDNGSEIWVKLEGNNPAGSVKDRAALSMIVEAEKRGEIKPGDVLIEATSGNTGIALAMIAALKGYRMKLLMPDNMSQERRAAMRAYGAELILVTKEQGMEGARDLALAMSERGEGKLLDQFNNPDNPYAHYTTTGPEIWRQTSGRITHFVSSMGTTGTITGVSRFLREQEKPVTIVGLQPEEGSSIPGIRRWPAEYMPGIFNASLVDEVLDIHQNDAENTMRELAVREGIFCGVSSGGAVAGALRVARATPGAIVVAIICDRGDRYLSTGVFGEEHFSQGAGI

Molecule `CN1C(=O)[C@]23CC4=CC=C[C@H](O)[C@H]4N2C(=O)[C@@]1(CO)SS3` [compound 1, gliotoxin] has an IC50 [1] of ~3 µM and an IC50 [2] of ~3 µM.
